Data: US20160272691A1, “COMPOSITIONS AND METHODS FOR TREATING CONDITIONS ASSOCIATED WITH y-[sequence]” (NDSU RESEARCH FOUNDATION, priority 2013, published 2016)
No end group written: not given here.

Legend:
γHV68 M11 = molecular target: T1, γHV68 M11 (Murid herpesvirus 4, UniProt P89884); assay: biochemical; assay type: binding, murine γHV68; details: for ΔG, M11 / ΔH, M11 / ΔS, M11: ITC, 25° C., Table 1
T1 construct: γHV68 M11 residues 1-136 was expressed and purified; made in house
Source text: (§1) Various Bcl-2 homologs lacking the C-terminal transmembrane helix were cloned and expressed to enable purification of soluble constructs identical to those used for previous structural studies. γHV68 M11 residues 1-136 was expressed and purified. The double mutant variant of Bcl-XL (N52D, N66D) was created by two rounds of site-directed mutagenesis using the QuikChange II Site-Directed Mutagenesis Kit (Agilent Technologies), then cloned, along with a C-terminal His6-tag for purification, into the NdeI and NotI restriction sites of pET 29b. The His6-tagged Bcl-XL (residues 1-208, N52D, N66D) were expressed in E. coli strain BL21(DE3)pLysS, and soluble protein in the cell lysate was purified to homogeneity by Immobilized Metal Affinity Chromatography using two 5 mL His-Select columns (GE Healthcare) linked in tandem, followed by Ion-Exchange Chromatography using a Mono Q HR 10/10 column (GE Healthcare) and Size-Exclusion Chromatography using a 16/60 preparative Superdex 75 column (GE Healthcare).
(§2) Various Beclin 1 BH3D-derived peptides, were chemically synthesized, and HPLC purified to >95% purity, with peptide purity confirmed by electrospray mass spectrometry (EZBioLabs/RSSynthesis/Protein Chemistry Technology Core at the University of Texas Southwestern Medical Center, Dallas).
(§3) Isothermal titration calorimetry was performed using a Nano ITC Low Volume (TA Instruments). For all ITC experiments, samples were loaded into separate dialysis cassettes, and dialyzed into ITC buffer. The ITC buffer for all experiments involving γHV68 M11 was 50 mM HEPES, pH 7.5, 250 mM NaCl and 2 mM β-mercaptoethanol and for human Bcl-XL was 25 mM HEPES, pH 7.5, 100 mM NaCl and 2 mM β-mercaptoethanol. ITC was performed at 25° C. with 25 injections of 2 μL each. Data were analyzed using NanoAnalyze Software (TA Instruments), with an independent model.

human Bcl-XL = molecular target: T2, human Bcl-XL (Homo sapiens, UniProt Q07817, N52D/N66D); assay: Isothermal titration calorimetry, binding of Beclin 1 BH3D-derived peptides to Bcl-XL; details: ITC
T2 construct: The His6-tagged Bcl-XL (residues 1-208, N52D, N66D) were expressed in E. coli; His6 (C); made in house; host or cells: E. coli BL21(DE3)pLysS
Source text: as §1, §2, §3

Bcl-XL = molecular target: T3, Bcl-XL (Homo sapiens, UniProt Q07817); assay: Autophagy assay (GFP-LC3 puncta), Bcl-XL-mediated down-regulation of autophagy in MCF7 cells; assay type: cell-based; details: cells that transiently express Bcl-XL in addition to Beclin 1; p=0.92294 treated versus untreated
T3 construct: expressed in transfected cells; host or cells: MCF7 human breast carcinoma cells
Description: (§4) Quantification of the fluorescent autophagosomes in MCF7 cells co-transfected with GFP-LC3 (1.6 μg), Beclin 1 (1.2 μg), and either Bcl-XL (1.2 μg) or M11(1.2 μg) expression plasmids (4 μg plasmids total) was done using an inverted AxioObserver (Zeiss). Cells were cultured in DMEM with 10% fetal calf serum (growth medium) in 8-well slides (Millipore) and transfected at 80% confluence with Lipofectamine (Invitrogen). After transfection, cells were either starved overnight in Earle's balanced salt solution (EBSS, starvation medium), or grown in nutrient-rich media with the addition of 2×EAA (essential amino acids) and 2×NEAA (nonessential amino acids) (nutrient rich medium) in the absence or presence of 1 mM peptides if indicated. The number of GFP-LC3 puncta per GFP-LC3 positive cell was assessed by counting a minimum of 50 cells via Image ProPlus for duplicate samples per condition in three independent experiments. The significance of alterations in autophagy levels were determined by a two-tailed, heteroscedastic student's t-test, wherein p≦0.05 is considered significant.
(§5) Lastly, whether the DM peptide would specifically prevent M11-mediated down-regulation, but not Bcl-XL-mediated down-regulation of Beclin 1-dependent autophagy in cells was investigated. […]

MCF7 cells = assay: Autophagy assay (GFP-LC3 puncta) in MCF7 cells without Bcl-XL or M11; assay type: cell-based, human
Description: as §4, §5

M11 = molecular target: T4, M11 (Murid herpesvirus 4, UniProt P89884); assay: Autophagy assay (GFP-LC3 puncta), M11-mediated down-regulation of autophagy in MCF7 cells; assay type: cell-based, murine γHV68; details: cells that transiently express M11 in addition to Beclin 1; p=0.0010 treated versus untreated
T4 construct: expressed in transfected cells; host or cells: MCF7 human breast carcinoma cells
T4 sequence (P89884 whole entry, looked up): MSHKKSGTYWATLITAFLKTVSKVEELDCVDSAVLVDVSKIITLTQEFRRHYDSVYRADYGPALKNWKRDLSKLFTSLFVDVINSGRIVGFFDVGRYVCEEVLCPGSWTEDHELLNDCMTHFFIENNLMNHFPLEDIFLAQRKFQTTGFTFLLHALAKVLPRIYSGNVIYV
Description: as §4, §5

T2 sequence (Q07817 1-208 N52D/N66D): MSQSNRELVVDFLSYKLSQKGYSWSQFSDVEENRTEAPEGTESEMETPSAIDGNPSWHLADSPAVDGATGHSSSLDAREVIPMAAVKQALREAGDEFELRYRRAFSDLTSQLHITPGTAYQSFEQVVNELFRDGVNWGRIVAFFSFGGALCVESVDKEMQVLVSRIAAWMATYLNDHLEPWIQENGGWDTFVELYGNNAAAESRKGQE
T3 sequence (Q07817 whole entry): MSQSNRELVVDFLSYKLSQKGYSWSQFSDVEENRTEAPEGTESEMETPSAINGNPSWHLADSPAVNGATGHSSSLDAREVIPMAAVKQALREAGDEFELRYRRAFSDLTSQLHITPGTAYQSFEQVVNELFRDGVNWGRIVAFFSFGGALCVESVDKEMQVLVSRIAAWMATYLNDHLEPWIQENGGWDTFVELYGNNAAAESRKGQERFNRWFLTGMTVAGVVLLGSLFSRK

Substance | Kd (γHV68 M11) [nM] | ΔG, M11 (γHV68 M11) [kcal/mol] | ΔH, M11 (γHV68 M11) [kcal/mol] | ΔS, M11 (γHV68 M11) [J/K · mol] | fold better binding to M11 compared to the G120E peptide (γHV68 M11; relative to G120E peptide) [fold] | fold weaker binding to M11 compared to WT (γHV68 M11; relative to WT BH3D) [fold] | binding to Bcl-XL (in words) (human Bcl-XL) | TΔSapp for binding to M11, fold lower than for binding to Bcl-XL (γHV68 M11; M11 versus Bcl-XL) [fold] | ΔHapp for binding to M11, fold higher than for binding to Bcl-XL (γHV68 M11; M11 versus Bcl-XL) [fold] | ΔG, Bcl-XL (human Bcl-XL; 25° C., Table 1) [kcal/mol] | ΔH, Bcl-XL (human Bcl-XL; 25° C., Table 1) [kcal/mol] | ΔS, Bcl-XL (human Bcl-XL; 25° C., Table 1) [J/K · mol] | Kd (human Bcl-XL; 25° C., Table 1, cell "No" wraps to "Binding" in the next grid row (= No Binding)) [nM] | effect on autophagy compared to untreated cells (Bcl-XL) | levels of autophagy (MCF7 cells; MCF7 cells, nutrient-rich or starvation conditions, peptide treatment) | autophagy levels relative to untreated cells (MCF7 cells; cells that express Beclin 1, but not Bcl-XL or M11, p=0.03383 treated versus untreated) | autophagy levels compared to untreated cells (M11)
GSGTMENLSRRLKVTEALFDIMSGQT [G120E + D121A] | 6430 ± 150 | -7.079 ± 0.014 | -14.9 ± 0.65 | −109.81 ± 9.28 | ~5.7 | ~4.7 | does not bind |  |  |  |  |  |  |  |  |  | 
GSGTMENLSRRLKVTGDLFDIMSGQT [WT, reference compound] | 1380 ± 410 | -8.009 ± 0.17 | -16.96 ± 1.53 | −125.72 ± 22.53 |  |  |  | ~4 | ~2 | -7.787 ± 0.055 | -10.41 ± 0.344 | −36.89 ± 4.53 | 1950 ± 190 |  |  |  | 
TAT-DM peptide: HIV-1 TAT protein transduction domain attached via a diglycine linker to the N-terminus of the DM peptide (YGRKKRRQRRRGGGSGTMENLSRRLKVTEALFDIMSGQT) |  |  |  |  |  |  |  |  |  |  |  |  |  | insignificant effect | did not increase levels of autophagy | only a slight elevation in autophagy levels | markedly increases autophagy levels
